Patent US10336725B2, “Chemical compounds” (AstraZeneca AB, priority 2014, dated 2019)
pIC50: −log10 of the molar value. Where a name gives a salt, the structure may show the parent alone.

Each molecule was assayed against T1, Sodium Channel ENaC (Homo sapiens, UniProt P37088+P51168+P51170) (assay: Sodium Channel ENaC Ussing Chamber Test (short circuit current)). Conditions: human primary bronchial epithelial cells at air-liquid interface; inhibition of short circuit current; compounds added to the apical side.
T1 construct: Human primary bronchial epithelial cells differentiated at air-liquid interface (ALI); host or cells: Human primary bronchial epithelial cells differentiated at air-liquid interface
T1 sequence (P37088 1-669): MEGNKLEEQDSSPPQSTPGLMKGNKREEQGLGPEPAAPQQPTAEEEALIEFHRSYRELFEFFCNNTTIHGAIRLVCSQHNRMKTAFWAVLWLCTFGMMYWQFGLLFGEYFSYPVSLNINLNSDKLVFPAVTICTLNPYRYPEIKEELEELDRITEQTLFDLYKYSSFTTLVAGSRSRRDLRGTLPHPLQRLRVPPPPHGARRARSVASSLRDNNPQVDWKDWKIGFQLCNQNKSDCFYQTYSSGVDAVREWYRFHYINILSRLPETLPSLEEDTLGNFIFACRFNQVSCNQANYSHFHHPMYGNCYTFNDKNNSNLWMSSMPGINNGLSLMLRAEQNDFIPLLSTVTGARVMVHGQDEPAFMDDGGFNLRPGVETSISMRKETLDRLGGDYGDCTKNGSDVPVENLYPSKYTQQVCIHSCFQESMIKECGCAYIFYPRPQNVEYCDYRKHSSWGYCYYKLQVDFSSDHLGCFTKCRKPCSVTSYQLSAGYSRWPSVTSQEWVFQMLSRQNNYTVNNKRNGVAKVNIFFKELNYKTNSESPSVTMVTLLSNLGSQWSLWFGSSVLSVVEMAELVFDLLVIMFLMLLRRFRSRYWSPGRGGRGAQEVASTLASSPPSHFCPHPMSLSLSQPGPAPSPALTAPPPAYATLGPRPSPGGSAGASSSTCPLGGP
T1 sequence (P51168 1-640): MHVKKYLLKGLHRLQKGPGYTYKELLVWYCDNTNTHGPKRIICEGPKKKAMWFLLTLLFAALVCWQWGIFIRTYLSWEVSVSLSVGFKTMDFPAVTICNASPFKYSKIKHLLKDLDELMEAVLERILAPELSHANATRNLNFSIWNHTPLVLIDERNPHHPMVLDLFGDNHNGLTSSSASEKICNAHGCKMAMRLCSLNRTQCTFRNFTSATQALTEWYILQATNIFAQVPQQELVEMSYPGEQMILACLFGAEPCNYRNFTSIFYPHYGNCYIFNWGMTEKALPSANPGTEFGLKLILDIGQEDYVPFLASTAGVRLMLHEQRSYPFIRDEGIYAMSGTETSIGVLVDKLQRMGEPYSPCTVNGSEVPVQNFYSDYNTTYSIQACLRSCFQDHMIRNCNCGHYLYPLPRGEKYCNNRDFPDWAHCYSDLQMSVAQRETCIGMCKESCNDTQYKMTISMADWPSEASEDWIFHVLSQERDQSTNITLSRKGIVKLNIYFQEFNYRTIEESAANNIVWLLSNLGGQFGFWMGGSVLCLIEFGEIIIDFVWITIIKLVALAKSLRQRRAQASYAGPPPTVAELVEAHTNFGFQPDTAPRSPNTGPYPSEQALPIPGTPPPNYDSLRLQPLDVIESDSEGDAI
T1 sequence (P51170 1-649): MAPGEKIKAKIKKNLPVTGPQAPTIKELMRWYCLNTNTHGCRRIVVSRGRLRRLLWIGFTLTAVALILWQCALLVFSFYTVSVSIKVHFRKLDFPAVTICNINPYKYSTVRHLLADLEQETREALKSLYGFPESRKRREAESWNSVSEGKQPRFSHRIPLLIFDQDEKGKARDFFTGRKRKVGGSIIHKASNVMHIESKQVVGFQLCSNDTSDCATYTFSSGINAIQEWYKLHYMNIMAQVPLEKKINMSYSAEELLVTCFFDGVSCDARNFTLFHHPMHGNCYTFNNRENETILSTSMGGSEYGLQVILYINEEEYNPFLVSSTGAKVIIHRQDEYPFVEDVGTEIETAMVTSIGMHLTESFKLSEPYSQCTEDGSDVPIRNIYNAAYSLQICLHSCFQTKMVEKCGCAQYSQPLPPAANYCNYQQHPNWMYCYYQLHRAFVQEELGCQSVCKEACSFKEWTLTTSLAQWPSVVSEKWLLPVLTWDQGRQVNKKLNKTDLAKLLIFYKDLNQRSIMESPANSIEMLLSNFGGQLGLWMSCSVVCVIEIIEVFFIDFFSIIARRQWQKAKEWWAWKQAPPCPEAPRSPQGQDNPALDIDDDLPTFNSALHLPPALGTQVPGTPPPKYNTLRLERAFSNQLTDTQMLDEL
Format: cell-based
Protocol: Sodium Channel ENaC Ussing Chamber Test
Human primary bronchial epithelial cells differentiated at air-liquid interface (ALI) on snapwell permeable supports (MatTek Corporation, MA, USA, cat no AIR-100-SNP) were maintained at ALI culture in a humidified incubator at 37° C. and 5% CO2. Basolateral medium (MatTek Corporation, MA, USA cat no AIR-100-MM-ASY) was changed every second day. Mucus or liquid formed on the apical side was gently aspirated every second day to maintain viability and performance of the cells.
The transepithelial voltage between the luminal/apical and basolateral membrane were measured in the ussing chamber consisted of vertical, in-house manufactured ussing chambers, DVC-1000 V/C clamps with preamplifiers (World Precision Instruments), electrode kits (EK1, World Precision Instruments), Power Lab with Chart5 software, water bath with external circulation and carbogen gas distribution and regulation system. Electrodes used in the set up were casted manually using 4% agarose in 0.9% sterile NaCl according to the manufacturer's recommendation.
The ussing chambers were assembled with an empty snapwell membrane (Costar 3407) and electrodes contained in Kreb's buffer (SIGMA-ALDRICH cat no K3753) for one hour at 37° C. in presence of 95% oxygen and 5% carbon dioxide. After this equilibration step the system was compensated for fluid resistance and input offset.
The equilibrated chambers were reassembled with a snapwell containing ALI cells and after 20 minutes stabilisation cumulative doses of the compounds were added to the apical side of the membrane. After the final dose 10 μM Benzamil was added to reach maximum.
All test compounds, including the reference compound, were diluted from 10 mM stocks in 100% DMSO and added to opaque 96-well plates (Greiner, Cat No. 651201). Dilution series of 12 doses were prepared in DMSO, starting with 3 μM followed by 10 times dilution steps.
Chart5 for Windows software was used to measure the value of the short circuit current after each compound addition. The data was transferred into Excel and analysed using IDBS XLfit® 5.2 (ID Business Solutions Ltd). The molar concentration of test or reference compound producing 50% inhibition (curve IC50) was derived by fitting data to a 4-parameter logistic function of the form: y=(A+((B−A)/(1+(((10^C)/x)^D))))
A The bottom plateau of the curve, i.e. the final minimum y value
B The top of the plateau of the curve i.e. the final maximum y value
C The log10 x value at a y value of 50%.

SMILES | pIC50
Cc1ccccc1C[C@H](CNCC1CCN(C(=O)CCNC[C@H](O)[C@@H](O)[C@H](O)CO)CC1)CNC(=O)c1nc(Cl)c(N)nc1N [Example 1, 3,5-diamino-6-chloro-N—((R)-2-(2-methylbenzyl)-3-(((1-(3-(((2S,3R,4R)-2,3,4,5-tetrahydroxypentyl)amino)propanoyl)piperidin-4-yl)methyl)amino)propyl)pyrazine-2-carboxamide] | 9.50
CCCCCCN(CCNC(=O)N1CCC(CNC[C@H](CNC(=O)c2nc(Cl)c(N)nc2N)Cc2ccccc2C)CC1)C[C@H](O)[C@@H](O)[C@H](O)[C@H](O)CO [Example 3, 3,5-diamino-6-chloro-N—((R)-3-((1-(2-(hexyl((2S,3R,4R,5R)-2,3,4,5,6-pentahydroxyhexyl)amino)ethylcarbamoyl)piperidin-4-yl)methylamino)-2-(2-methylbenzyl)propyl)pyrazine-2-carboxamide] | 10.10
CCCCCCN(CCC(=O)N1CCC(CNC[C@H](CNC(=O)c2nc(Cl)c(N)nc2N)Cc2ccccc2C)CC1)C[C@H](O)[C@@H](O)[C@H](O)CO [Example 5, 3,5-diamino-6-chloro-N—((R)-3-((1-(3-(hexyl((2S,3R,4R)-2,3,4,5-tetrahydroxypentyl)amino)propanoyl)piperidin-4-yl)methylamino)-2-(2-methylbenzyl)propyl)pyrazine-2-carboxamide] | 9.00
CCCCCCN(CCC(=O)N1CCC(CNC[C@H](CNC(=O)c2nc(Cl)c(N)nc2N)Cc2ccccc2C)CC1)C[C@H](O)[C@@H](O)[C@H](O)[C@H](O)CO [Example 4, 3,5-diamino-6-chloro-N—((R)-3-((1-(3-(hexyl((2S,3R,4R,5R)-2,3,4,5,6-pentahydroxyhexyl)amino)propanoyl)piperidin-4-yl)methylamino)-2-(2-methylbenzyl)propyl)pyrazine-2-carboxamide] | 9.20
CCCCCCN(CCNC(=O)Oc1ccc(CNC[C@H](CNC(=O)c2nc(Cl)c(N)nc2N)Cc2ccccc2C)cc1)C[C@H](O)[C@@H](O)[C@H](O)[C@H](O)CO [Example 11, 4-(((R)-3-(3,5-diamino-6-chloropyrazine-2-carboxamido)-2-(2-methylbenzyl)propylamino)methyl)phenyl 2-(hexyl((2S,3R,4R,5R)-2,3,4,5,6-pentahydroxyhexyl)amino)ethylcarbamate] | 8.80

Next, values leading:

pIC50 | SMILES
9.50 | CCCCCCN(CCC(=O)N1CCC(CNC[C@H](CNC(=O)c2nc(Cl)c(N)nc2N)Cc2ccccc2C)CC1)C[C@@H](O)[C@@H](O)[C@H](O)[C@H](O)CO [Example 8, 3,5-diamino-6-chloro-N—((R)-3-((1-(3-(hexyl((2R,3R,4R,5R)-2,3,4,5,6-pentahydroxyhexyl)amino)propanoyl)piperidin-4-yl)methylamino)-2-(2-methylbenzyl)propyl)pyrazine-2-carboxamide]
8.60 | CCCCCCN(CCNC(=O)c1ccc(CNC[C@H](CNC(=O)c2nc(Cl)c(N)nc2N)Cc2ccccc2C)cc1)C[C@@H](O)[C@@H](O)[C@H](O)[C@H](O)CO [Example 9, 3,5-diamino-6-chloro-N—((R)-3-((4-((2-(hexyl((2R,3R,4R,5R)-2,3,4,5,6-pentahydroxyhexyl)amino)ethyl)carbamoyl)benzyl)amino)-2-(2-methylbenzyl)propyl)pyrazine-2-carboxamide Dihydrochloride]
7.50 | CCCCCCN(CCNC(=O)c1ccc(CNC[C@@H](CNC(=O)c2nc(Cl)c(N)nc2N)Cc2ccccc2C)cc1)C[C@H](O)[C@@H](O)[C@H](O)CO [Example 14, 3,5-diamino-6-chloro-N—((S)-3-((4-((2-(hexyl((2S,3R,4R)-2,3,4,5-tetrahydroxypentyl)amino)ethyl)carbamoyl)benzyl)amino)-2-(2-methylbenzyl)propyl)pyrazine-2-carboxamide Acetic Acid]
8.60 | CCCCCCN(CCNC(=O)c1ccc(CNC[C@H](CNC(=O)c2nc(Cl)c(N)nc2N)Cc2ccccc2C)cc1)C[C@H](O)[C@@H](O)[C@H](O)[C@H](O)CO [Example 10, 3,5-diamino-6-chloro-N—((R)-3-((4-((2-(hexyl((2S,3R,4R,5R)-2,3,4,5,6-pentahydroxyhexyl)amino)ethyl)carbamoyl)benzyl)amino)-2-(2-methylbenzyl)propyl)pyrazine-2-carboxamide]
9.60 | CCCCCCN(CCNC(=O)c1ccc(CCNC[C@H](CNC(=O)c2nc(Cl)c(N)nc2N)Cc2ccccc2C)cc1)C[C@H](O)[C@@H](O)[C@H](O)[C@H](O)CO [Example 12, 3,5-diamino-6-chloro-N—((R)-3-((4-((2-(hexyl((2S,3R,4R,5R)-2,3,4,5,6-pentahydroxyhexyl)amino)ethyl)carbamoyl)phenethyl)amino)-2-(2-methylbenzyl)propyl)pyrazine-2-carboxamide Dihydrochloride]
9.50 | CCCCCCN(CCCC(=O)N1CCC(CNC[C@H](CNC(=O)c2nc(Cl)c(N)nc2N)Cc2ccccc2C)CC1)C[C@H](O)[C@@H](O)[C@H](O)[C@H](O)CO [Example 6, 3,5-diamino-6-chloro-N—((R)-3-((1-(4-(hexyl((2S,3R,4R,5R)-2,3,4,5,6-pentahydroxyhexyl)amino)butanoyl)piperidin-4-yl)methylamino)-2-(2-methylbenzyl)propyl)pyrazine-2-carboxamide]
8.90 | Cc1ccccc1C[C@H](CNCC1CCN(C(=O)CCNC[C@H](O)[C@@H](O)[C@H](O)[C@H](O)CO)CC1)CNC(=O)c1nc(Cl)c(N)nc1N [Example 7, 3,5-diamino-6-chloro-N—((R)-2-(2-methylbenzyl)-3-((1-(3-((2S,3R,4R,5R)-2,3,4,5,6-pentahydroxyhexylamino)propanoyl)piperidin-4-yl)methylamino)propyl)pyrazine-2-carboxamide]
